Data reported in publication PMC7472354, “Enhanced Antimicrobial Activity of N-Terminal Derivatives of a Novel Brevinin-1 Peptide from The Skin Secretion of Odorrana schmackeri” (Toxins, 2020).
Entries after “also recorded” stand apart in the source; their conditions may differ. Where a SMILES comes first, the peptide text is derived from it.

Columns and labels:
[1] = tested on: horse red blood cells; settings: 2 h
Procedure: The haemolytic activity of synthetic peptides was determined using the horse red blood cells that were extracted from the de-fibroblast whole horse blood (TCS Biosciences Ltd. Buckingham, UK). […] Briefly, the red blood cells were harvested and washed using PBS until all broken red blood cells were removed. Then, a 2% cell suspension was prepared using PBS. The peptide concentrations were set as antimicrobial activity assay and mixed with the red blood cells in the microcentrifuge tubes. After a 2 h-incubation at 37 °C, the tubes were centrifuged and the suspension was transferred into a clear 96 well plate. The absorbance of released haemoglobin in the suspension was detected at 570 nm by a plate reader. Besides, the red blood cells treated with PBS and 1% Triton X-100 were used as the negative and positive controls, respectively. […] The therapeutic index (TI) was further determined as below:(1) TI=HC50/product of n MICsn,

[2] = tested on: MRSA; experiment: Treatment of MRSA-infected Galleria mellonella larvae; type: in vivo; settings: 10 µL of 10^8 CFU/mL MRSA injected; peptide 25 or 50 mg/kg injected after 2 h; 30 larvae per group
Procedure: The in vivo study of antimicrobial activity of the peptides was evaluated using the larvae of Galleria mellonella, which was described in the previous study with minor modifications. The larvae of Galleria mellonella (250 ± 25 mg; Livefood UK Ltd., Rooks Bridge, UK) were selected. The MRSA culture was prepared the same way as the antimicrobial activity assay. Then, MRSA cells were collected and washed, and further diluted to 10^8 CFU/mL in the saline. Ten µL of MRSA suspension was injected to the larvae and placed in a petri dish. After 2 h, the MRSA infected larvae were administrated with 10 µL of peptides (25 mg/kg, 50 mg/kg) by injection. Saline and vancomycin (20 mg/kg) (Sigma-Aldrich, UK) were used as the negative control and positive control, respectively. Each sample group contained 10 larvae, and the experiment was repeated three times (30 larvae for each group in total). The survival curves were achieved using Prism (Version 6.0; GraphPad Software Inc., San Diego, CA, USA) and the log-rank test was employed to analyze the significance between the different treatments and the controls. * (p < 0.05), ** (p < 0.01) and *** (p < 0.001) represent statistical significance.

[3] = Circular dichroism, alpha-helical content (K2D3); type: physicochemical; settings: CD, 50 µM peptide in 50% TFE in 10 mM NH4AC; helical content calculated with K2D3
Procedure: To further identify the secondary structure of purified peptides, they were dissolved in 10 mM ammonium acetate (NH4AC) and 50% trifluoroethanol (TFE) in 10 mM NH4AC, respectively, to achieve the concentration of 50 µM. […] The circular dichroism (CD) data of the peptides in TFE solution was submitted to the K2D3 webserver to analyse the α-helical content. Moreover, helical wheel projections of brevinin-1OS and its analogues were conducted (Figure A7) and the physicochemical properties of all peptides are summarized in Table 1.
Circular dichroism (CD) was employed to determine the secondary structure of the synthetic peptides in the different environment. The peptides were prepared in the aqueous solution, 10 mM NH4AC solution (pH 7.4), or the membrane mimicking solution, 50% TFE in 10 mM NH4AC, at a concentration of 50 µM. The proportion of helical content of each peptide in the 50% TFE in 10 mM NH4AC was calculated using the online server, K2D3 (http://cbdm-01.zdv.uni-mainz.de/~andrade/k2d3/). Physiochemical properties of the helical forming peptides were calculated online by Heliquest (http://heliquest.ipmc.cnrs.fr). Additionally, the secondary structures of peptides were predicted online by I-TASSER Predictions (https://zhanglab.ccmb.med.umich.edu/I-TASSER/).

Row | Structure (SMILES) | HC50 (concentration causing 50% haemolysis of the red blood cells) [1] | mortality of MRSA-infected larvae [2] | α-Helicity [3]
1 | CC(C)C[C@H](NC(=O)[C@H](C)NC(=O)[C@H](Cc1c[nH]c2ccccc12)NC(=O)[C@H](CCCCN)NC(=O)[C@H](CC(C)C)NC(=O)[C@@H](N)Cc1ccccc1)C(=O)N[C@@H](CCCCN)C(=O)N[C@H](C(=O)N[C@@H](C)C(=O)N[C@@H](C)C(=O)N[C@@H](CCCCN)C(N)=O)C(C)C [OSd] (H-FLKWALKVAAK-NH2) | >512 µM | – | –
2 | CC(C)C[C@H](NC(=O)[C@H](C)NC(=O)[C@H](Cc1c[nH]c2ccccc12)NC(=O)[C@H](CCCCN)NC(=O)[C@@H]1CCCN1C(=O)[C@H](CC(C)C)NC(=O)[C@@H](N)Cc1ccccc1)C(=O)N[C@@H](CCCCN)C(=O)N[C@@H](Cc1c[nH]c2ccccc12)C(=O)N[C@@H](C)C(=O)N[C@@H](C)C(=O)N[C@@H](CCCCN)C(N)=O [OSf] (H-FLPKWALKWAAK-NH2; N-terminus assumed) | – | dramatically decreased the mortality; also recorded: reduced the mortality | 34.8%
